In patent US9750242B2, “Nitrite salts as poisons in baits for omnivores” (priority 2007, dated 2017):
Like-named read-outs stand apart in the source and are kept apart here.

Assays:
feral pigs [1] = settings: for Mean peak Met hb: approximate peak
Excerpt: The captive feral pig colony at Robert Wicks Pest Animal Research Centre (Queensland Department of Natural Resource, Mines and Water) was comprised of feral pigs harvested by commercial harvesters in the area surrounding Inglewood, Queensland. A variety of sexes, ages and sizes were drawn at random from the captive colony and used in these trials. Feral pigs were housed in the purpose built feral pig accommodation.
This trial occurred in January 2006. The trial design is set out in FIG. 5. Twenty-one fasted captive feral pigs were anaesthetised with ketamine (20 mgkg^−1) and xylazine (1.2 mgkg^−1) by intramuscular injection with a 16 gauge needle into the quadriceps muscle. […] The resulting liquid was then administered by oesophageal gavage to an individual feral pig. A number of sodium nitrate dosages were trialled on different groups of feral pigs. After administration, feral pigs were observed carefully for clinical signs and death. […] Each dose rate contained three feral pigs.
This was done on an identical manner to the placebo feral pigs.
Feral pigs were then sampled opportunistically at various times over the following minutes or hours. […] Feral pigs which recovered from anaesthetic quickly, or were large, were sampled less frequently than other feral pigs. All feral pigs were also blood sampled immediately after death (within 1 minute). The blood samples were used to assess Methaemoglobin levels (Met […] Hb). An automated radio-oximeter (model ABL520 supplied by Radiometer Copenhagen) was used for blood Met Hb analysis. The Met Hb data from each individual within a group was pooled to provide dose response curves for multiple feral pigs administered at a single dose rate. The feral pigs which received 135 mgkg^−1 were not blood sampled until after death. A post mortem examination was conducted on all feral pigs.
Serial Met Hb levels were pooled for each group of feral pigs receiving a single dose rate and plotted against time. Trend-lines were fitted to the data. Logarithmic functions were used for the three higher dose rates, while a polynomial trend line was fitted to the 90 mgkg^−1 feral pig group. […] This program makes few assumptions about data and consists of a range of univariate, multivariate and graphical routines for analysing matrices of samples. Specifically, ordination by multidimensional scaling (MDS) was used to visually differentiate feral pigs based on variables (time to death, peak Met haemoglobin levels, time to dyspnoea and time to vomiting). One factor was used, dose rate. Data was normalized and 30 random resets occurred. ANOSIM was used to determine whether significant differences between these variables were due to dose rate. SIMPER (a function of Primer) was used to determine dissimilarity between dose rates, or what dose rates were most dissimilar.

dingos = settings: bait delivered 1080, captive trials; cited from earlier work
feral pigs [2] = experiment: Bait delivery trial: sodium nitrite to feral pigs in food; assay type: in vivo, feral pig
Method: The trials were conducted in October 2005 and June 2006. Both trials were designed to test the hypothesis that SN would be lethal to feral pigs when they consumed the toxin freely in food. […] Before the toxin trial, each feral pig was pre-fed daily for 10 days with the bait substrate they were to receive during the toxin trial (bait or dry wheat). During the trial, six feral pigs acted as controls, receiving no toxin, but receiving bait substrate (carrier material). Three of these received wheat and three received the manufactured baits of the type described in Example 2. The remaining 18 feral pigs were divided into three groups of six animals. Three pigs in each group received 250 or 500 g (depending on body size and therefore total toxic dose to deliver) of wheat and the other three received one or two the baits (again, amount of toxin dependent). […] Feral pigs were observed every 15 minutes for 6 hours, then hourly for 6 hours, then at euthanasia 12 hours after clinical signs developed (if they remained alive). Each dose rate contained six animals divided evenly amongst two bait carrier materials. Six controls were used.

[3] = 44.8 kg male with profuse bleeding into the thorax
[4] = gavage, doses of 135 mgkg^-1 or above, nine feral pigs

O=C([O-])[O-].[Na+].[Na+] [Sodium carbonate, sodium carbonate, reference compound]
synergism with SN (Met Hb curves) (feral pigs [1]; 30 g sodium carbonate followed by 180 mgkg^-1 SN, gavage): did not appear to act as a synergist

O=C(O)CF [Example 1080, sodium fluoroacetate]
LD50 dose (dingos): 0.11 mg/kg

O=NO [SN, Sodium nitrite]
peak Met Hb level, individual pig (feral pigs [1]; [3]): 90.1%
time to death after gavage, individual pig (feral pigs [1]; [3]): 47 min
post mortem abnormalities (feral pigs [1]; 90 mgkg^-1 group): no abnormalities were detected
post mortem abnormalities, only consistent sign (feral pigs [1]; all animals which died following nitrite ingestion): dark or chocolate coloured blood and subsequent discolouration of organs and tissues which are well vascularised
Met Hb levels in surviving pigs (feral pigs [1]; gavage 90 mg/kg, 14 hours post administration, two survivors): near zero
deaths of animals dosed (feral pigs [1]; gavage 90 mgkg^-1): one of three
period of lethargy (lessened gradually) (feral pigs [1]; gavage 90 mgkg^-1): 4 to 6 h
Death/survival (feral pigs [1]; gavage 90 mgkg^-1, 3 feral pigs): 1/2
time to death of one animal after dosing (feral pigs [1]; gavage 90 mgkg^-1, following blood sampling): approximately 5 hours
vomiting (feral pigs [1]; gavage 90 mgkg^-1, three hours after intoxication): two of three animals
Mean peak Met hb (feral pigs [1]; gavage 90 mgkg^-1, two from three animals assessed): 55^3%
Mean time to death (feral pigs [1]; gavage 135 mgkg^-1): 115 ± 18 min
Death/survival (feral pigs [1]; gavage 135 mgkg^-1, 3 feral pigs): 3/0
Mean peak Met hb (feral pigs [1]; gavage 135 mgkg^-1): 89 ± 6%
Mean time to death (feral pigs [1]; gavage 180 mgkg^-1): 87 ± 16 min
Death/survival (feral pigs [1]; gavage 180 mgkg^-1, 3 feral pigs): 3/0
Mean peak Met hb (feral pigs [1]; gavage 180 mgkg^-1): 83 ± 8%
Mean time to death (feral pigs [1]; gavage 180 mgkg^-1 with Na2CO3): 52 ± 26 min
Death/survival (feral pigs [1]; gavage 180 mgkg^-1 with Na2CO3 (30 g), 3 feral pigs): 3/0
Mean peak Met hb (feral pigs [1]; gavage 180 mgkg^-1 with Na2CO3): 80 ± 15%
in-coordination, paddling and short convulsive seizures (feral pigs [1]; gavage >=135 mgkg^-1, close to time of death): two of nine animals
time to dyspnoea after gavage (feral pigs [1]; gavage >=135 mgkg^-1, most animals): 30 to 60 min
vomiting (feral pigs [1]; gavage >=135 mgkg^-1, nine animals): Seven animals vomited between 1-4 times
effect on blood Met Hb values (feral pigs [1]; gavage, all feral pigs that were sampled): rapid increases in blood Met Hb values
range of time to death (feral pigs [1]; gavage, doses of 135 mgkg^-1 or above): 42 to 130 min
deaths (feral pigs [1]; [4]): All nine feral pigs that received doses of 135 mgkg^−1 or above died
mean time to death (S.D.) (feral pigs [1]; [4]): 106 ± 75 min
mean peak Met Hb level in killed feral pigs (feral pigs [1]; gavage, killed feral pigs): 82%
Approximate bait lethal dose (Mouse): ~705 mg/kg
Approximate gavage lethal dose (Mouse): ~235 mg/kg
Approximate lethal SN dose (Mouse; body size 0.03 kg): ~0.02 gm
deaths (feral pigs [2]; 135 mgkg^-1 in bait substrate, six animals): none died
deaths (feral pigs [2]; 270 mgkg^-1 consumed, five animals): one of these died
deaths (feral pigs [2]; 540 mgkg^-1 consumed in either bait substrate, 2 for each substrate): 4/4
mean time that clinical signs were displayed (feral pigs [2]; all animals): 84 ± 41 min
mean time to death (S.D.) (feral pigs [2]; all dead animals): 141 ± 49 min
mean time that clinical signs were displayed (feral pigs [2]; animals receiving the full 540 mgkg^-1 dose): 80 ± 51 min
mean time to death (S.D.) (feral pigs [2]; animals that received the full 540 mgkg^-1 dose): 122 ± 49 min
outcome of one animal with partial dose (feral pigs [2]; approximately 400 mgkg^-1 in wheat (370 g of 500 g eaten)): still died
Approximate bait lethal dose (Rat): ~291 mg/kg
Approximate gavage lethal dose (Rat): ~97 mg/kg
Approximate lethal SN dose (Rat; body size 0.1 kg): ~0.03 gm
Approximate bait lethal dose (Pig): ~310 mg/kg
Approximate gavage lethal dose (Pig): ~103 mg/kg
Approximate lethal SN dose (Pig; body size 50 kg): ~15.5 gm
Approximate bait lethal dose (Common brushtail possum): ~489 mg/kg
Approximate gavage lethal dose (Common brushtail possum): ~163 mg/kg
Approximate lethal SN dose (Common brushtail possum; body size 4 kg): ~2.0 gm
Approximate bait lethal dose (Northern brown bandicoot): ~696 mg/kg
Approximate gavage lethal dose (Northern brown bandicoot): ~232 mg/kg
Approximate lethal SN dose (Northern brown bandicoot; body size 2 kg): ~1.4 gm
Approximate bait lethal dose (Raccoon): ~150 mg/kg
Approximate lethal SN dose (Raccoon; body size 3 kg): ~0.75 gm
